Assay results from PubChem BioAssay (NCI).
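Values below derive from 48-hour exposures of cells grown in 96-well plates, with endpoints linearly interpolated between the two concentrations bracketing the appropriate inhibition level. Abbreviation: GI50, concentration required for 50% inhibition of growth. Definition used: TGI = concentration required for complete inhibition of growth.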

What was measured:
Assay in all cases: NCI anticancer screen, dose series, 48 h
[1] = tested on: SNB-75 CNS
[2] = tested on: UACC-257 melanoma
[3] = tested on: TK-10 renal
[4] = tested on: 786-0 renal
[5] = tested on: HOP-62 NSCLC
[6] = tested on: HCT-116 colon
[7] = tested on: NCI/ADR-RES ovarian
[8] = tested on: UO-31 renal
[9] = tested on: UACC-62 melanoma
[10] = tested on: PC-3 prostate
[11] = tested on: SK-OV-3 ovarian
[12] = tested on: OVCAR-3 ovarian
[13] = tested on: MOLT-4 leukemia
[14] = tested on: SNB-19 CNS
[15] = tested on: CAKI-1 renal
[16] = tested on: HCT-15 colon
[17] = tested on: EKVX NSCLC
[18] = tested on: SK-MEL-28 melanoma
[19] = tested on: IGROV1 ovarian
[20] = tested on: KM12 colon
[21] = tested on: OVCAR-5 ovarian
[22] = tested on: OVCAR-8 ovarian
[23] = tested on: HS 578T breast
[24] = tested on: OVCAR-4 ovarian
[25] = tested on: COLO 205 colon
[26] = tested on: CCRF-CEM leukemia
[27] = tested on: SW-620 colon
[28] = tested on: NCI-H23 lung
[29] = tested on: ACHN renal
[30] = tested on: RPMI-8226 leukemia
[31] = tested on: LOX IMVI melanoma
[32] = tested on: NCI-H522 lung
[33] = tested on: M14 melanoma
[34] = tested on: SF-539 CNS
[35] = tested on: MALME-3M melanoma
[36] = tested on: SF-295 CNS
[37] = tested on: RXF 393 renal
[38] = tested on: HT29 colon
[39] = tested on: HCC-2998 colon
[40] = tested on: BT-549 breast
[41] = tested on: NCI-H460 lung
[42] = tested on: T-47D breast
[43] = tested on: DU-145 prostate
[44] = tested on: U251 CNS
[45] = tested on: MDA-MB-435
[46] = tested on: SK-MEL-5 melanoma
[47] = tested on: A498 renal
[48] = tested on: SN12C renal
[49] = tested on: A549 NSCLC
[50] = tested on: SR leukemia
[51] = tested on: SF-268 CNS
[52] = tested on: MCF7 breast
[53] = tested on: NCI-H226 lung
[54] = tested on: MDA-MB-231 breast

`N#Cc1c(N)nc(NCc2ccccc2)c(C#N)c1-c1ccc(Cl)cc1` was tested, and the GI50 [1] was 22.1 µM, the TGI [1] was 72.3 µM and the GI50 [2] was 67.9 µM. The TGI [2] was over 100 µM, the GI50 [3] was 14.4 µM and the TGI [3] was 32.8 µM. The GI50 [4] was 20 µM, the TGI [4] was 38.6 µM and the GI50 [5] was 16.1 µM. For the same compound, the TGI [5] was 31.2 µM, the GI50 [6] was 15.8 µM and the TGI [6] was 41.3 µM. The GI50 [7] was 19.8 µM, the TGI [7] was 60 µM and the GI50 [8] was 31.9 µM. The TGI [8] was over 100 µM, the GI50 [9] was 14.7 µM and the TGI [9] was 33.5 µM. The GI50 [10] was 17.9 µM, the TGI [10] was 48.7 µM and the GI50 [11] was 33.2 µM. The TGI [11] was over 100 µM, the GI50 [12] was 14.7 µM and the TGI [12] was 37.1 µM. It also gave a GI50 [13] of 34.3 µM, a TGI [13] of over 100 µM and a GI50 [14] of 31.6 µM. It also gave a TGI [14] of over 100 µM, a GI50 [15] of 20.1 µM and a TGI [15] of 46.7 µM. It also gave a GI50 [16] of 18.8 µM, a TGI [16] of over 100 µM and a GI50 [17] of 27.3 µM. For the same compound, the TGI [17] was 79 µM, the GI50 [18] was 25.9 µM and the TGI [18] was over 100 µM. For the same compound, the GI50 [19] was 13.5 µM, the TGI [19] was 32.4 µM and the GI50 [20] was 25.2 µM. It also gave a TGI [20] of over 100 µM, a GI50 [21] of 24.2 µM and a TGI [21] of 76.1 µM. The GI50 [22] was 19 µM, the TGI [22] was 57.2 µM and the GI50 [23] was 15.6 µM. It also gave a TGI [23] of 40.4 µM, a GI50 [24] of 9.57 µM and a TGI [24] of over 100 µM. For the same compound, the GI50 [25] was 46.9 µM, the TGI [25] was over 100 µM and the GI50 [26] was 28.2 µM. The TGI [26] was over 100 µM, the GI50 [27] was 16.2 µM and the TGI [27] was 96.9 µM. It also gave a GI50 [28] of 22.8 µM, a TGI [28] of 80 µM and a GI50 [29] of 13.4 µM. It also gave a TGI [29] of 32.8 µM, a GI50 [30] of 18.9 µM and a TGI [30] of 97.1 µM. The GI50 [31] was 12.4 µM, the TGI [31] was 29.3 µM and the GI50 [32] was 20.9 µM. For the same compound, the TGI [32] was 57.5 µM, the GI50 [33] was 20 µM and the TGI [33] was 99.7 µM. The GI50 [34] was 25.9 µM, the TGI [34] was 68.1 µM and the GI50 [35] was 14.4 µM. The TGI [35] was 54.5 µM, the GI50 [36] was 14.2 µM and the TGI [36] was 34.4 µM. It also gave a GI50 [37] of 26.5 µM, a TGI [37] of 74.1 µM and a GI50 [38] of 22.3 µM. The TGI [38] was over 100 µM, the GI50 [39] was 71.1 µM and the TGI [39] was over 100 µM. For the same compound, the GI50 [40] was 19.6 µM, the TGI [40] was 60.4 µM and the GI50 [41] was 10.2 µM. It also gave a TGI [41] of 28.7 µM, a GI50 [42] of 27.3 µM and a TGI [42] of over 100 µM. For the same compound, the GI50 [43] was 17.7 µM, the TGI [43] was 55.7 µM and the GI50 [44] was 12.4 µM. The TGI [44] was 26.9 µM, the GI50 [45] was 15.7 µM and the TGI [45] was 43.6 µM. For the same compound, the GI50 [46] was 25.9 µM, the TGI [46] was over 100 µM and the GI50 [47] was 10.4 µM. The TGI [47] was 26.4 µM, the GI50 [48] was 16.1 µM and the TGI [48] was 38.3 µM. It also gave a GI50 [49] of 28.3 µM, a TGI [49] of over 100 µM and a GI50 [50] of 13.3 µM. It also gave a TGI [50] of 52.8 µM, a GI50 [51] of 14.3 µM and a TGI [51] of 35.6 µM. For the same compound, the GI50 [52] was 13.8 µM, the TGI [52] was 83.1 µM and the GI50 [53] was 10.6 µM. For the same compound, the TGI [53] was 31.2 µM, the GI50 [54] was 14.2 µM and the TGI [54] was 33.2 µM.
